Usually GI50 stands for the concentration at which growth is held to half of that of the control.

The structures appear in SMILES notation.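 How tested: cells in 96-well plates exposed to compound for 48 hours at five concentrations. GI50: concentration for 50% inhibition of growth.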 Active and inactive are the calls of the source. Rule as the data show it: active = GI50 up to about 1.1 µM and inactive = higher.

Among the test systems are K562; 786-0; HT-29; SNB-19; NCI-H226; T47D; SK-OV-3; HOP-92; SN12C; SF-295; U-251; MDA-MB-435; OVCAR-5; SK-MEL-2; CAKI-1; UACC-257; CCRF-CEM; DU-145; A549; SR.
Holding throughout (assay): DTP human tumour cell line panel, 48 h

In the case of `COC(=O)[C@@]12C(=O)C=CC(=O)[C@@H]1C1C(=CC2COC(C)=O)O[C@@H]2OC3(CCCCC3)O[C@H]12` (stereo partly specified), the GI50 in the experiment on K562 was 4.15 µM (inactive); with 786-0, 7.1 µM (inactive); in the experiment on HT-29 it was 6.01 µM (inactive); with SNB-19, 16.1 µM (inactive); in the experiment on NCI-H226, 17.2 µM (inactive); with T47D, 3.66 µM (inactive). Further, the GI50 in the experiment on SK-OV-3 is 16.1 µM (inactive); in the experiment with HOP-92, 8.49 µM (inactive); in the experiment with SN12C, 15.5 µM (inactive); with SF-295, 16.1 µM (inactive); with U-251, 15.6 µM (inactive); in the experiment with MDA-MB-435, 16.2 µM (inactive). The GI50 with OVCAR-5 is 16.7 µM (inactive); with SK-MEL-2, 20.2 µM (inactive); with CAKI-1 it was 12.6 µM (inactive); with UACC-257, 16.3 µM (inactive); in the experiment on CCRF-CEM, 8.13 µM (inactive); in the experiment with DU-145, 18.3 µM (inactive). Moreover, the GI50 in the experiment on A549 was 14.5 µM (inactive); with SR it was 3.05 µM (inactive).

In the case of `Nc1ncnc2nn(C3OC(CO)C(O)C3O)nc12` (stereo unspecified), the GI50 in the experiment with K562 was 5.46 µM (inactive); in the experiment on 786-0, 10.4 µM (inactive); in the experiment on HT-29, 8.81 µM (inactive); in the experiment on SNB-19, 29.6 µM (inactive); in the experiment with NCI-H226, 5.36 µM (inactive); in the experiment on T47D, 4.21 µM (inactive). Further, the GI50 with SK-OV-3 was 2.67 µM (inactive); in the experiment on HOP-92, 20 µM (inactive); in the experiment with SN12C, 8.02 µM (inactive); in the experiment on SF-295, 22 µM (inactive); with U-251 it was 23.1 µM (inactive); with MDA-MB-435, 9.1 µM (inactive). Further, the GI50 was 9.06 µM (inactive) in the experiment with OVCAR-5; 2.99 µM (inactive) with SK-MEL-2; 8.55 µM (inactive) with CAKI-1; 23.2 µM (inactive) in the experiment with UACC-257; 21.1 µM (inactive) with CCRF-CEM; 5.26 µM (inactive) in the experiment on DU-145. In addition, the GI50 in the experiment with A549 is 9.16 µM (inactive); in the experiment with SR, 2.99 µM (inactive).

Turning to `COc1ccc(CC2C(=O)NC(C)C(=O)N(C)C3C(=O)N(C)C(Cc4ccc(O)c(c4)Oc4ccc(cc4)C3O)C(=O)NC(C)C(=O)NC(C)C(=O)N2C)cc1.COc1ccc(CC2C(=O)NC(C)C(=O)N(C)C3Cc4ccc(cc4)Oc4cc(ccc4O)CC(C(=O)NC(C)C(=O)NC(C)C(=O)N2C)N(C)C3=O)cc1` (stereo unspecified), the GI50 in the experiment on K562 is 0.01 µM (active); with 786-0, 0.00771 µM (active); in the experiment on HT-29 it was 0.01 µM (active); with SNB-19, 0.000638 µM (active); in the experiment on NCI-H226, 0.00233 µM (active); in the experiment with T47D, 0.00446 µM (active). Further, the GI50 in the experiment on SK-OV-3 is 0.0179 µM (active); in the experiment with HOP-92, 0.00364 µM (active); in the experiment on SF-295, 0.0274 µM (active); in the experiment with U-251, 0.0012 µM (active); in the experiment on MDA-MB-435, 0.004 µM (active); with OVCAR-5 it was 0.00995 µM (active). Also, the GI50 in the experiment with SK-MEL-2 is 0.00114 µM (active); with CAKI-1 it was 0.137 µM (active); in the experiment with UACC-257, 0.00322 µM (active); with CCRF-CEM it was 0.00177 µM (active); in the experiment with DU-145, 0.00364 µM (active); in the experiment with A549 it was 0.0177 µM (active). The GI50 in the experiment on SR is 0.01 µM (active).

In the case of `CO[C@@H](c1ccccc1)[C@H](O)[C@](O)(c1ccccc1)P(=O)(OC)OC`, the GI50 in the experiment with K562, in the experiment with 786-0, in the experiment with HT-29, in the experiment with SNB-19, in the experiment on NCI-H226 and with T47D was > 100 µM (inactive) throughout. In addition, the GI50 is > 100 µM (inactive) with SK-OV-3; 91.6 µM (inactive) with HOP-92; > 100 µM (inactive) in the experiment with SN12C; > 100 µM (inactive) in the experiment with SF-295; > 100 µM (inactive) in the experiment on U-251; > 100 µM (inactive) in the experiment with MDA-MB-435. Moreover, the GI50 with OVCAR-5, in the experiment on SK-MEL-2, with CAKI-1, in the experiment on UACC-257, in the experiment on CCRF-CEM and with DU-145 was > 100 µM (inactive) each time. Also, the GI50 in the experiment with A549 and in the experiment on SR was > 100 µM (inactive) in each case.

Consider `CCCCCCCCCCCCN1[C@H]2CCC[C@H]2C(O)[C@@H]2CCC[C@@H]21` (stereo partly specified), for which the GI50 is > 100 µM (inactive) in the experiment on K562; > 100 µM (inactive) in the experiment with 786-0; > 100 µM (inactive) with HT-29; > 100 µM (inactive) in the experiment on SNB-19; 96.6 µM (inactive) with NCI-H226; 29.2 µM (inactive) in the experiment on T47D. The GI50 in the experiment on SK-OV-3 is > 100 µM (inactive); in the experiment on HOP-92 it was > 100 µM (inactive); in the experiment with SN12C, 52.8 µM (inactive); in the experiment on U-251, 77.4 µM (inactive); with MDA-MB-435, > 100 µM (inactive); in the experiment with OVCAR-5, > 100 µM (inactive). The GI50 in the experiment with SK-MEL-2, with CAKI-1, with UACC-257, with CCRF-CEM, in the experiment with DU-145 and in the experiment on A549 was > 100 µM (inactive) in each case. For the same molecule, the GI50 in the experiment on SR is 41 µM (inactive).

As for `Oc1c(C2=NNC(c3ccc(Cl)cc3Cl)C2)ccc2ccccc12` (stereo unspecified), the GI50 with K562 was 23.1 µM (inactive); in the experiment with 786-0, 31.5 µM (inactive); with HT-29 it was 31.4 µM (inactive); in the experiment with NCI-H226, 50.4 µM (inactive); in the experiment on T47D, 62.2 µM (inactive); in the experiment with SK-OV-3, 46.3 µM (inactive). In addition, the GI50 in the experiment with HOP-92 was 31.7 µM (inactive); with SN12C, 32.6 µM (inactive); with SF-295, 28.3 µM (inactive); in the experiment on U-251, 32.5 µM (inactive); with MDA-MB-435, 22.8 µM (inactive); with OVCAR-5 it was 42.7 µM (inactive). Further, the GI50 in the experiment on SK-MEL-2 is 35.8 µM (inactive); in the experiment with CAKI-1, 66.5 µM (inactive); with UACC-257, 42.3 µM (inactive); in the experiment on CCRF-CEM, 5.26 µM (inactive); in the experiment on DU-145, 64.9 µM (inactive); in the experiment on A549 it was 29 µM (inactive). Moreover, the GI50 in the experiment with SR was 8.38 µM (inactive).

Regarding `COc1ccc2c(c1)C(N)=C(c1ccccc1OC)C2=O`, the GI50 in the experiment with K562, in the experiment on 786-0, with HT-29, in the experiment with SNB-19, with NCI-H226 and with T47D was > 100 µM (inactive) throughout. Also, the GI50 is > 100 µM (inactive) in the experiment on SK-OV-3; > 100 µM (inactive) in the experiment with HOP-92; > 100 µM (inactive) in the experiment on SN12C; > 100 µM (inactive) with SF-295; > 100 µM (inactive) with U-251; 53.6 µM (inactive) in the experiment on MDA-MB-435. Besides, the GI50 in the experiment on OVCAR-5, in the experiment on SK-MEL-2, with CAKI-1, in the experiment on UACC-257, with CCRF-CEM and in the experiment with DU-145 was > 100 µM (inactive) throughout. In addition, the GI50 in the experiment with SR is 29.9 µM (inactive).
